Assay results as given in PMC10224004, “Modulation of Distribution and Diffusion through the Lipophilic Membrane with Cyclodextrins Exemplified by a Model Pyridinecarboxamide Derivative” (Pharmaceutics, 2023).

Experiments:
[1] = Association constant of IPN with cyclodextrin by phase-distribution method; type: binding; conditions: 310.2 K
Method: The association constants (KC) of IPN with cyclodextrins were determined by a partition coefficient (phase-distribution) method. Possible partition of CDs to the 1-octanol or n-hexane phases was assumed to be negligible since both cyclodextrins used in this study have high aqueous solubility (>600 mg∙mL^−1). The KC values of the complexes between the drug and each CD were calculated assuming that in the presence of CD the distribution coefficient ( DappOrg/(buf+CD) ) is defined as:(8) DappOrg/(buf+CD)=C2Org/C2buf(drug)+C2buf(drug•CD) where C2buf(drug) and C2buf(drug•CD) are the concentrations of the drug and drug complex with CD in the aqueous phase. The following equation was applied:(9) DappOrg/(buf+CD)/DappOrg/buf=1+KC⋅CCD where DappOrg/buf and DappOrg/(buf+CD) are the distribution coefficients of a compound in the absence and in the presence of CD in the aqueous phase, respectively. Similarly to the phase-solubility method of the stability constants determination, but bearing in mind an opposite trends in solubility and organic solvent/water partition (the higher the solubility, the lower the distribution coefficient), the following dependence was plotted to obtain the association constant (KC) and the stoichiometric ratio of the complex (α):(10) log(DappOrg/buf−DappOrg/(buf+CD)/DappOrg/buf)=log(KC)+α⋅log(CCD) where CCD is the concentration of cyclodextrin in the aqueous phase of the distribution system and the y-intercept produces log(KC).
To approve the validity of the distribution results interpretation we used the distribution coefficients at different CDs concentrations for the determination of the association constants of IPN with the studied cyclodextrins. As shown by Másson et al. for hydrophilic drugs (a case of IPN), this method can be successfully used for the simultaneous determination of the association constant with cyclodextrins and partition coefficient. The association constants (KC) of IPN with HP-β-CD and M-β-CD were determined according to the phase-distribution method using Equations (8)–(10). To this end, the plots of the dependences (Equation (10)) were constructed and are illustrated in Figure 6.

[2] = Shake-flask solubility in 1-octanol and dissolution thermodynamics; type: physicochemical; conditions: T 290.2 K; value = S2 × 10^1
[3] = set-up: method as in PMID 12750026; conditions: 293.2 K (20 °C); cited from earlier work
[4] = Shake-flask solubility in n-hexane and dissolution thermodynamics; type: physicochemical; conditions: for Molar solubility S2 × 10^3 in n-Hexane: value = S2 × 10^3
Method: The solubility of the investigated drugs in 1-octanol and n-hexane was determined by the shake-flask technique. To this end, the glass vials containing the solutions with the excess amount of the compound were placed in an air thermostat and stirred at a predetermined temperature for no less than 24 h (equilibrium state). After this, the suspensions were left for 5 h or more to precipitate the undissolved drug and centrifuged (Biofuge pico, Thermo Electron LED GmbH, Langenselbold, Germany) at a predetermined temperature during 20 min (10,000 rpm). The aliquots of the clear solutions were taken and examined via a spectrophotometer (Cary-50 Varian, Palo Alto, CA, USA, Software Version 3.00 (339)). The molar concentrations of the compounds in the solvents were calculated using calibration curves at the appropriate wavelength characteristic for each substance. The experimental results were reported as an average of at least three replicated experiments with an accuracy of 2–4%. In order to evaluate the thermodynamic parameters of the IPN dissolution in 1-octanol and n-hexane, the molar solubility ( S2 ) was recalculated to the mole fraction ( X2 ) by the equation:(1) X2=M2S2/S2(M1−M2)+1000ρ, where M1 and M2 are the molar masses of IPN and organic solvent, respectively, and ρ (g∙cm^−3) is the density of the pure solvents. The linear functions describing the temperature dependences of the solubility within the temperature interval from 293.2 ± 0.5 K to 313.2 ± 0.5 K for both organic solvents were derived:(2) lnX2=A+B/T
The apparent solution enthalpies ΔHsol0 were determined by the van’t Hoff equation:(3) ∂(lnX2)/∂T=ΔHsol0/RT^2
The apparent dissolution Gibbs energies ( ΔGsol ) and entropies ( ΔSsol ) were calculated at a standard temperature of 298.2 K and 310.2 K:(4) ΔGsol298.2/310.2=−RT(lnX2298.2/310.2) (5) ΔGsol298.2/310.2=ΔHsol0−TΔSsol298.2/310.2 where R is the universal gas constant.

[5] = from 1-Octanol/Buffer pH 7.4 System
[6] = from n-hexane/buffer pH 7.4 system

In the case of `CC(C)NNC(=O)c1ccncc1` [IPN, N′-isopropyl isonicotinic hydrazide], the “Association constant KC of IPN complex with HP-β-CD” value [1, 5] is reported as 0.899 ± 0.022, the “Association constant KC of IPN complex with M-β-CD” value [1, 5] is reported as 0.479 ± 0.109 and the “α (parameter indicating the complex stoichiometry), IPN with HP-β-CD” value [1, 5] is reported as 1.004 ± 0.014. The “α (parameter indicating the complex stoichiometry), IPN with M-β-CD” value [1, 5] was 1.000 ± 0.065, the “Association constant KC of IPN complex with HP-β-CD” value [1, 6] was 1.536 ± 0.128 and the “Association constant KC of IPN complex with M-β-CD” value [1, 6] was 1.311 ± 0.241. The “α (parameter indicating the complex stoichiometry), IPN with HP-β-CD” value [1, 6] was 1.087 ± 0.076, the “α (parameter indicating the complex stoichiometry), IPN with M-β-CD” value [1, 6] was 1.057 ± 0.143 and the “Molar solubility S2 × 10^1 in 1-Octanol” value [2] was 4.09 ± 0.08 × 10^1 (M). For the same compound, the “log Dexpoct/pH7.4” value [3] was 0.35 ± 0.10, the “Molar solubility S2 × 10^3 in n-Hexane” value ([4]; T 293.2 K) was 0.83 ± 0.03 × 10^3 (M) and the “Molar solubility S2 × 10^3 in n-Hexane” value ([4]; T 298.2 K) was 1.07 ± 0.02 × 10^3 (M). For the same compound, the “Molar solubility S2 × 10^3 in n-Hexane” value ([4]; T 303.2 K) was 1.42 ± 0.03 × 10^3 (M), the “Molar solubility S2 × 10^3 in n-Hexane” value ([4]; T 310.2 K) was 2.03 ± 0.04 × 10^3 (M) and the TΔSsol298.2 ([4]; n-hexane, 298.2 K) was 18.0 ± 0.8 kJ/mol. It also gave a ΔGsol298.2 ([4]; n-hexane, 298.2 K) of 22.0 ± 0.4 kJ/mol, a ζHsol ([4]; n-hexane, 298.2 K (first value of cell)) of 69.0% and a ΔHsol298.2/310.2 ([4]; n-hexane, 298.2 K and 310.2 K) of 40.0 ± 0.9 kJ/mol. It also gave a TΔSsol310.2 ([4]; n-hexane, 310.2 K) of 18.8 ± 0.8 kJ/mol, a ΔGsol310.2 ([4]; n-hexane, 310.2 K) of 21.2 ± 0.4 kJ/mol and a ζHsol ([4]; n-hexane, 310.2 K (second value of cell)) of 68.0%.
